In patent publication US20220119354A1, “DIAMINO-SUBSTITUTED PYRIDINES AND PYRIMIDINES AS HERBICIDES” (FMC Corporation, priority 2019, published 2022):

Assays:
Assay type in all cases: in vivo
[1] = system: barnyardgrass (Echinochloa crus-galli); experiment: Test A preemergence, barnyardgrass; conditions: 0 to 100 scale; for Barnyardgrass plant response rating: 0 is no effect, 100 is complete control
Outline: (§1)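 Pots of loam–sand mix; preemergence directed soil spray at sowing, postemergence spray at one- to two-leaf stage. Readout: visual injury vs untreated controls, ~10 d, 0–100 scale.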

[2] = system: kochia (Kochia scoparia); experiment: Test A preemergence, kochia; conditions: 0 to 100 scale; for Kochia plant response rating: 0 is no effect, 100 is complete control
Outline: as §1

[3] = system: ragweed (common ragweed, Ambrosia elatior); experiment: Test A preemergence, ragweed; conditions: 0 to 100 scale; for Ragweed plant response rating: 0 is no effect, 100 is complete control
Outline: as §1

[4] = system: ryegrass, Italian (Lolium multiflorum); experiment: Test A preemergence, Italian ryegrass; conditions: 0 to 100 scale; for Ryegrass, Italian plant response rating: 0 is no effect, 100 is complete control
Outline: as §1

[5] = system: foxtail, green (Setaria viridis); experiment: Test A preemergence, green foxtail; conditions: 0 to 100 scale
Text: (§2) Seeds of plant species selected from barnyardgrass (Echinochloa crus-galli), kochia (Kochia scoparia), ragweed (common ragweed, Ambrosia elatior), ryegrass, Italian (Lolium multiflorum), foxtail, giant (Setaria faberii), foxtail, green (Setaria viridis), and pigweed (Amaranthus retroflexus) were planted into a blend of loam soil and sand and treated preemergence with a directed soil spray using test chemicals formulated in a non-phytotoxic solvent mixture which included a surfactant.
(§3) At the same time, plants selected from these weed species and also wheat (Triticum aestivum), corn (Zea mays), blackgrass (Alopecurus myosuroides), and galium (catchweed bedstraw, Galium aparine) were planted in pots containing the same blend of loam soil and sand and treated with postemergence applications of test chemicals formulated in the same manner. Plants ranged in height from 2 to 10 cm and were in the one- to two-leaf stage for the postemergence treatment. Treated plants and untreated controls were maintained in a greenhouse for approximately 10 d, after which time all treated plants were compared to untreated controls and visually evaluated for injury. Plant response ratings, summarized in Table A, are based on a 0 to 100 scale where 0 is no effect and 100 is complete control. A dash (-) response means no test result.

[6] = system: pigweed (Amaranthus retroflexus); experiment: Test A preemergence, pigweed; conditions: 0 to 100 scale; for Pigweed plant response rating: 0 is no effect, 100 is complete control
Outline: as §1

[7] = system: barnyardgrass (Echinochloa crus-galli); experiment: Test A postemergence, barnyardgrass; conditions: 0 to 100 scale
Outline: as §1

[8] = system: kochia (Kochia scoparia); experiment: Test A postemergence, kochia; conditions: 0 to 100 scale
Outline: as §1

[9] = system: ragweed (common ragweed, Ambrosia elatior); experiment: Test A postemergence, ragweed; conditions: 0 to 100 scale
Outline: as §1

[10] = system: ryegrass, Italian (Lolium multiflorum); experiment: Test A postemergence, Italian ryegrass; conditions: 0 to 100 scale
Outline: as §1

[11] = system: foxtail, green (Setaria viridis); experiment: Test A postemergence, green foxtail; conditions: 0 to 100 scale
Text: as §2, §3

[12] = system: pigweed (Amaranthus retroflexus); experiment: Test A postemergence, pigweed; conditions: 0 to 100 scale
Outline: as §1

[13] = system: wheat (Triticum aestivum); experiment: Test A postemergence, wheat; conditions: 0 to 100 scale
Outline: as §1

[14] = system: corn (Zea mays); experiment: Test A postemergence, corn; conditions: 0 to 100 scale
Outline: as §1

[15] = system: blackgrass (Alopecurus myosuroides); experiment: Test A postemergence, blackgrass; conditions: 0 to 100 scale
Outline: as §1

[16] = system: galium (catchweed bedstraw, Galium aparine); experiment: Test A postemergence, galium; conditions: 0 to 100 scale
Outline: as §1

[17] = system: rice (Oryza sativa); experiment: Test B flooded paddy test, rice; conditions: Flood, 250 g ai/ha, applied to paddy water, 2-leaf stage, visual evaluation after 13 to 15 d
Outline: (§4)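 Plants grown to 2-leaf stage. Compounds applied directly into paddy water flooded 3 cm above soil, with that depth kept throughout. After 13–15 d in greenhouse, visual rating versus controls on a 0–100 scale (0 no effect, 100 complete control).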

[18] = system: sedge, umbrella (small-flower umbrella sedge, Cyperus difformis); experiment: Test B flooded paddy test, umbrella sedge; conditions: Flood, 250 g ai/ha, applied to paddy water, 2-leaf stage, visual evaluation after 13 to 15 d
Outline: as §4

[19] = system: ducksalad (Heteranthera limosa); experiment: Test B flooded paddy test, ducksalad; conditions: Flood, 250 g ai/ha, applied to paddy water, 2-leaf stage, visual evaluation after 13 to 15 d
Outline: as §4

[20] = system: barnyardgrass (Echinochloa crus-galli); experiment: Test B flooded paddy test, barnyardgrass; conditions: Flood, 250 g ai/ha, applied to paddy water, 2-leaf stage, visual evaluation after 13 to 15 d
Outline: as §4

[21] = system: foxtail, giant (Setaria faberii); experiment: Test A preemergence, giant foxtail; conditions: 0 to 100 scale, 0 is no effect, 100 is complete control
Outline: as §1

[22] = system: foxtail, giant (Setaria faberii); experiment: Test A postemergence, giant foxtail; conditions: 0 to 100 scale, 0 no effect, 100 complete control
Outline: as §1

[23] = 31 g ai/ha, 0 no effect, 100 complete control
[24] = 125 g ai/ha, 0 no effect, 100 complete control

CC(CCc1ccccc1)Nc1ncc(C(F)(F)F)c(N)n1 (stereo not drawn) [Compound 23]
Plant response rating, Barnyardgrass ([1]; 125 g ai/ha): 0 | Plant response rating, Barnyardgrass ([1]; 500 g ai/ha): 0 | Plant response rating, Kochia ([2]; 125 g ai/ha): 0 | Plant response rating, Kochia ([2]; 500 g ai/ha): 0 | Plant response rating, Ragweed ([3]; 125 g ai/ha): 0 | Plant response rating, Ragweed ([3]; 500 g ai/ha): 0 | Plant response rating, Ryegrass, Italian ([4]; 125 g ai/ha): 0 | Plant response rating, Ryegrass, Italian ([4]; 500 g ai/ha): 0 | Plant response rating, Foxtail, Green ([5]; 125 g ai/ha): 0 | Plant response rating, Foxtail, Green ([5]; 500 g ai/ha): 0 | Plant response rating, Pigweed ([6]; 125 g ai/ha): 0 | Plant response rating, Pigweed ([6]; 500 g ai/ha): 50 | Plant response rating, Barnyardgrass ([7]; 125 g ai/ha): 0 | Plant response rating, Barnyardgrass ([7]; 500 g ai/ha): 0 | Plant response rating, Kochia ([8]; 125 g ai/ha): 0 | Plant response rating, Kochia ([8]; 500 g ai/ha): 0 | Plant response rating, Ragweed ([9]; 125 g ai/ha): 0 | Plant response rating, Ragweed ([9]; 500 g ai/ha): 0 | Plant response rating, Ryegrass, Italian ([10]; 125 g ai/ha): 0 | Plant response rating, Ryegrass, Italian ([10]; 500 g ai/ha): 0 | Plant response rating, Foxtail, Green ([11]; 125 g ai/ha): 0 | Plant response rating, Foxtail, Green ([11]; 500 g ai/ha): 0 | Plant response rating, Pigweed ([12]; 125 g ai/ha): 0 | Plant response rating, Pigweed ([12]; 500 g ai/ha): 0 | Plant response rating, Wheat ([13]; 125 g ai/ha): 0 | Plant response rating, Wheat ([13]; 500 g ai/ha): 0 | Plant response rating, Corn ([14]; 125 g ai/ha): 0 | Plant response rating, Corn ([14]; 500 g ai/ha): 0 | Plant response rating, Blackgrass ([15]; 125 g ai/ha): 0 | Plant response rating, Blackgrass ([15]; 500 g ai/ha): 0 | Plant response rating, Galium ([16]; 125 g ai/ha): 0 | Plant response rating, Galium ([16]; 500 g ai/ha): 0 | Plant response rating, Rice (0 to 100 scale, 0 is no effect, 100 is complete control) [17]: 0 | Plant response rating, Sedge, Umbrella (0 to 100 scale, 0 is no effect, 100 is complete control) [18]: 0 | Plant response rating, Ducksalad (0 to 100 scale, 0 is no effect, 100 is complete control) [19]: 0 | Plant response rating, Barnyardgrass (0 to 100 scale, 0 is no effect, 100 is complete control) [20]: 0

C[C@@H](Nc1ncc(C(F)(F)F)c(N)n1)c1cc2c(Cl)cccc2s1 [Compound 116]
Barnyardgrass plant response rating ([1]; 31 g ai/ha): 0 | Barnyardgrass plant response rating ([1]; 125 g ai/ha): 30 | Kochia plant response rating ([2]; 31 g ai/ha): 30 | Kochia plant response rating ([2]; 125 g ai/ha): 40 | Ragweed plant response rating ([3]; 31 g ai/ha): 60 | Ragweed plant response rating ([3]; 125 g ai/ha): 70 | Ryegrass, Italian plant response rating ([4]; 31 g ai/ha): 20 | Ryegrass, Italian plant response rating ([4]; 125 g ai/ha): 40 | Foxtail, Giant plant response rating ([21]; 31 g ai/ha): 20 | Foxtail, Giant plant response rating ([21]; 125 g ai/ha): 60 | Pigweed plant response rating ([6]; 31 g ai/ha): 40 | Pigweed plant response rating ([6]; 125 g ai/ha): 80 | Plant response rating, Barnyardgrass [7, 23]: 10 | Plant response rating, Barnyardgrass [7, 24]: 50 | Plant response rating, Kochia [8, 23]: 30 | Plant response rating, Kochia [8, 24]: 80 | Plant response rating, Ragweed [9, 23]: 40 | Plant response rating, Ragweed [9, 24]: 60 | Plant response rating, Ryegrass, Italian [10, 23]: 30 | Plant response rating, Ryegrass, Italian [10, 24]: 30 | Plant response rating, Foxtail, Giant ([22]; 31 g ai/ha): 10 | Plant response rating, Foxtail, Giant ([22]; 125 g ai/ha): 90 | Plant response rating, Pigweed [12, 23]: 90 | Plant response rating, Pigweed [12, 24]: 100 | Plant response rating, Wheat [13, 23]: 0 | Plant response rating, Wheat [13, 24]: 0 | Plant response rating, Corn [14, 23]: 20 | Plant response rating, Corn [14, 24]: 30 | Plant response rating, Blackgrass [15, 23]: 0 | Plant response rating, Blackgrass [15, 24]: 0 | Plant response rating, Galium [16, 23]: 60 | Plant response rating, Galium [16, 24]: 80 | Plant response rating, Rice (0 to 100 scale, 0 is no effect, 100 is complete control) [17]: 0 | Plant response rating, Sedge, Umbrella (0 to 100 scale, 0 is no effect, 100 is complete control) [18]: 65 | Plant response rating, Ducksalad (0 to 100 scale, 0 is no effect, 100 is complete control) [19]: 60 | Plant response rating, Barnyardgrass (0 to 100 scale, 0 is no effect, 100 is complete control) [20]: 35
